Measurements from patent publication US20170340636A1, “COMPOSITIONS AND METHODS FOR INHIBITION OF AUTOPHAGY” (Board of Regents, The University of Texas System, priority 2016, published 2017).

Tests used:
[1] = target: T1, ASK1 (Homo sapiens, UniProt Q99683); assay: DSF against ASK1 (selectivity panel of MAPK cascade members); format: binding; details: difference between the TAOK2 ΔTm and that of ASK1, DSF
T1 sequence (Q99683 1-1374): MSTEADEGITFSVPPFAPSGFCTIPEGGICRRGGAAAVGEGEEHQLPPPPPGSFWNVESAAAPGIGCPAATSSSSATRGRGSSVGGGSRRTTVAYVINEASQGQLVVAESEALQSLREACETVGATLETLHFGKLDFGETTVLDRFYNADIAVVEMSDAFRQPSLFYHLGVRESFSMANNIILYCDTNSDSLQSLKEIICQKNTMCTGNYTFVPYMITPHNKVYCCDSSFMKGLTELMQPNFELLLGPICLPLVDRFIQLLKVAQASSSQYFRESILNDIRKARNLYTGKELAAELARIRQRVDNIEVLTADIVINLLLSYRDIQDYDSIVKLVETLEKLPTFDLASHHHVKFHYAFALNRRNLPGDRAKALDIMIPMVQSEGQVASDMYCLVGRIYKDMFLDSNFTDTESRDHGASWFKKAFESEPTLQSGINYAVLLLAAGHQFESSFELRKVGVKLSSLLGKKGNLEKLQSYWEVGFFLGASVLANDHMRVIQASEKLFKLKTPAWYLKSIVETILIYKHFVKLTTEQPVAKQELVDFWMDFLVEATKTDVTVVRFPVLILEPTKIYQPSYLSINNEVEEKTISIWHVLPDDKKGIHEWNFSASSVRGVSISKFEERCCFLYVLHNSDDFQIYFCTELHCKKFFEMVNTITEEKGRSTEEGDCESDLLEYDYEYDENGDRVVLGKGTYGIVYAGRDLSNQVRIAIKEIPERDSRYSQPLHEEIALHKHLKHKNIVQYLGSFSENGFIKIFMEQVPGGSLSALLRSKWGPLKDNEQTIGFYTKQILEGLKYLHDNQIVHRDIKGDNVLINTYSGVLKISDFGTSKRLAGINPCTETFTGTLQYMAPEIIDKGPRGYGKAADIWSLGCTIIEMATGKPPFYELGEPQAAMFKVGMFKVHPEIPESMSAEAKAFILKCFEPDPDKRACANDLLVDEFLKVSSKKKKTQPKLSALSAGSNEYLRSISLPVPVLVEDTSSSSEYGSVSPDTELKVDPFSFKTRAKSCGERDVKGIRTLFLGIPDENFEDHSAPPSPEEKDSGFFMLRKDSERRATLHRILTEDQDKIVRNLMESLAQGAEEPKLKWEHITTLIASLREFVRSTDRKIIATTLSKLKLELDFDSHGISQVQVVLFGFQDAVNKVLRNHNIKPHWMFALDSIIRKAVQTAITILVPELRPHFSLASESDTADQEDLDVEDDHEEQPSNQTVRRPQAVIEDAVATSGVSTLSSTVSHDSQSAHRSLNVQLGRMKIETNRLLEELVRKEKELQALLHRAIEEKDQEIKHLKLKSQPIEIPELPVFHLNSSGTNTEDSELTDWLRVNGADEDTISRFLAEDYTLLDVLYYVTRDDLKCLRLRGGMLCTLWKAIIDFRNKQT
Protocol: Differential scanning fluorimetry binding assays of selected compounds against TAOK2 were conducted to measure strength of compound binding. A solution of 5 μM TAOK2, 50 mM MgCl2, 50 mM HEPES pH 7.5, and 2.5x SyproOrange(Life Technologies) was made. Compound was added to a final concentration of 1 μM. 25 μl of the reaction solution was added to the wells of a Biorad Multiplate 96 wellclear PCR plate. The plate was covered with a Biorad Microseal ‘B’ seal. Plates were read in a Biorad CFX96 Real-Time PCR system. The temperature was increased from 4° C. to 80° C., with fluorescence measurements being taken every 0.5° C. in the 6-FAM Fluorescein channel. The fluorescence response to heat curve was fit to a binding isotherm in order to determine the inflection point, which was taken as the melt temperature (Tm).
(§1) The difference between the TAOK2 ΔTm and that of p38 and ASK1 was determined. […] The majority of the other compounds were also preferentially inhibitory toward TAOK2. Of the 13 compounds, SW034538, SW172006 and SW083688 were cross-verified for selectivity by performing a specificity screen against 45 kinases commercially at Eurofins Cerep, Inc. (FIG. 3).

[2] = tested on: 45 off-target kinases; assay: Specificity screen against 45 kinases (Eurofins Cerep); format: biochemical; details: inhibition higher than 50% considered significant
Protocol: Of the 13 inhibitors, 3 were tested for cross-reactivity against 45 off-target kinases.
as §1

ΔΔTm (ASK1) [1] | Structure (SMILES) | specificity toward TAOK2 in screen against 45 kinases [2]
1.2 °C | CS(=O)(=O)c1ccc2nc(NC(=O)CCCOc3ccc(Cl)cc3)sc2c1 [SW172006] | highly specific toward TAOK2
2.1 °C | CCOCCCn1c(=S)[nH]c2cc(C(=O)NCC3COc4ccccc4O3)ccc2c1=O (stereo not drawn) [SW083688] | highly specific toward TAOK2
2.7 °C | CCC(=O)Nc1nc(C)c(-c2csc(Nc3cc(OC)ccc3OC)n2)s1 [SW034538] | cross-reactivity with respect to six of the 45 kinases
